The results in this text go back to patent US6369066B1, “Substituted 1,3-oxathiolanes with antiviral properties” (BioChem Pharma, Inc., priority 1990, dated 2002).

pIC50: −log10 of the molar value. In brackets after ≈: the same amount, converted by molar mass. Read-outs that look alike come from different tables or passages of the source.

Common to all, as to format: cell-based
For series [1], the system named is H9. In words: Cell culture inhibitory dose (CCID50) in H9. The following applies: cell counting, trypan blue exclusion, 7 days post drug treatment. How it is done:
(§1) Evaluation of Cell Culture Inhibitory Dose (CCID50)
(§2) Cell growth was determined by cell counting and viability by trypan blue exclusion 7 days post drug treatment. CCID50 is expressed as the drug concentration which inhibits 50% of cell growth.

Series [2] has as its system HIV-1 HXB2D-184 M→V (3TC™ and FTC resistance mutation). Description: IC50 in CBMCs with constructed mutated virus HXB2D-184. The following applies: Human immunodeficiency virus 1, read-out: IC50 HXB2D-184 M→V. How it is done: (§3) In short, viruses (HTLV-IIIB) that had initially been grown on MT-4 cells were passaged onto phytohemaglutinin-prestimulated cord blood mononuclear cells (CBM). For subsequent analysis, samples of CBM (5×10^5 cells per mL) were pretreated with various concentrations of the different compounds for 4 h and were then inoculated with CBL-grown HIV-1 at a multiplicity of infection of 1.0 in the concentration of the compound used for the pretreatment. Fresh medium, including the appropriate concentration of the compound was added three times weekly, and fresh phytohemaglutinin-prestimulated CBM (5×10^5 cells per mL) were added at 2-day intervals. The calculation of IC50 was determined on the basis of RT levels in culture fluids as described in Gao et al., (1992), J. Virol. 66: 12-19.
(§4) Determination of IC50 (μM) in Different Mutated Isolates of HIV-1 in the Presence of Different Antiviral Compounds
(§5) The procedure is similar to the procedure used in the CBM assay, with the exception that constructed virus and construted mutated virus were used.
(§6) The constructed virus HXB2D-65 correspond to the ddC resistance mutation and the constructed virus HXB2D-184 correspond to the 3TC™ and FTC resistance mutation.

For series [3], the system named is U937. Description: Cell culture inhibitory dose (CCID50) in U937. The conditions noted are these: cell counting, trypan blue exclusion, 7 days post drug treatment. How it is done:
as §1, §2

Series [4] has as its system MT-4. In words: Cell culture inhibitory dose (CCID50) in MT-4. The conditions noted are these: cell counting, trypan blue exclusion, 7 days post drug treatment. How it is done: as §1, §2
In series [5] the test system is cord blood mononuclear cells (CBM). In words: Cytotoxicity (CD50) reported with CBM assay. As to the method:
Assays on cord blood mononuclear cells were done substantially as described in Gu et al., J. Virol.
as §3, with “The calculation of IC50 was determined on the basis of RT levels in culture fluids as described in Gao et al., (1992), J. Virol.” left out

Series [6] concerns HIV-1 HXB2D. Description: IC50 in CBMCs with constructed virus HXB2D. The following applies: Human immunodeficiency virus 1, read-out: IC50 HXB2D. As to the method: as §3, §4, §5, §6
In series [7] the test system is HIV-1 (HTLV-IIIB). Description: CBM assay, IC50 from RT levels in culture fluids. The conditions noted are these: Human immunodeficiency virus 1. As to the method: Assays on cord blood mononuclear cells were done substantially as described in Gu et al., J. Virol. (1992), 66:7128-7135.
as §3

Series [8] concerns HIV-1 (strain RF). Description: Inhibition of syncytium formation in C8166 cells. How it is done: Inhibition of Syncytium Formation
C8166 cells were infected with HIV-1 (strain RF) at a moil of 1×10^−3 infectious units/cell and adsorbed at room temperature for 60 minutes. After adsorption, the cells were washed three times in growth medium. Aliquots of 10^5 cells were added to each well of 24-well plates containing serial dilution of test compounds at final concentrations of 50 μg/ml to 0.05 μg/ml in RPMI® 1640 growth medium. Untreated infected cells and untreated uninfected cells were also included as controls. The plates were incubated at 37° C./5% CO2 for 3-4 days in humidified containers. The cells were examined daily for evidence of HIV-1 induced syncytium formation. The syncytia were quantified by reference to the untreated infected controls, and the dose of compound required to reduce the cytopathic effect by 50% (ID50) was calculated.

Series [9] relates to MT-4 cells. In words: Formazan (MTT) assay, drug-induced cytotoxicity in uninfected MT-4 cells. The conditions noted are these: human, 7 days. As to the method:
Anti-HIV-1 antiviral activity was determined in MT-4 calls and MT-4 cells that have been made resistant to 3TC™. […] An uninfected cell suspension was prepared in parallel to evaluate drug-induced cytotoxicity. The two suspensions were incubated for 90 minutes at room temperature. Test compounds were serially diluted in 10-fold decrements from 100 μg/ml to 0.01 μg/ml (final concentrations in two 96 well microtitre plates. 20 μl of infected cell suspension were inoculated into each well of one of the plates (anti-viral), while 20 μl of uninfected cell suspension were added to each well of the second plate (cytotoxicity). The plates were then incubated for 7 days at 37° C. After incubation, 10 μl of 3-(4,5-dimethylthiazol-2-yl)-2,5-diphenyltetrazolium bromide (MTT) at 20 mg/ml was added to all wells and the plates incubated for a further 90 minutes at 37° C.
150 μl of 10% (v/v) alcoholic Triton X-100 was then added and the cells resuspended. After 15 minutes at room temperature, the plates were analyzed in a Multiskan MC reader at 405 nm. […] The optical density values for the cytotoxicity controls and the antiviral test wells were graphically plotted and the dose of compounds required to inhibit the conversion of MMT to 50% of the untreated uninfected controls was calculated.

The subject of series [10] is HIV-1 HXB2D-65 K→R (ddC resistance mutation). In words: IC50 in CBMCs with constructed mutated virus HXB2D-65. The following applies: Human immunodeficiency virus 1, read-out: IC50 HXB2D-65 K→R. How it is done:
as §3, §4, §5, §6

The mark [11] stands for this setting: Human immunodeficiency virus 1, C8166 cells, HIV-1 strain RF, syncytium formation, 3-4 days, read-out: IC50 (dose reducing the cytopathic effect by 50%, ID50).

One may read the pIC50 as −log10 of the IC50, conventionally taken in molar units. A word on the IC50: it is the midpoint of a concentration-inhibition curve. Regarding `Nc1ccn([C@@H]2CO[C@H](CO)S2)c(=O)n1` [Compound #2, 2S-hydroxymethyl-4S-(cytosin-1′-yl)-1,3-oxathiolane], in series [1], the “CCID50 H9” value is over 500 µM. Further, the values for the pIC50 in series [2], in [6] and in series [10] were 5.52, 7.00 and 5.46, respectively. In series [3], the “CCID50 U937” value worked out at 22 µM. The “CCID50 MT-4” value in series [4] was over 500 µM. Also, the CD50 in series [5] was over 23 µg/mL. In addition, the IC50 in series [7] was 0.03 to 1.22 µg/mL (≈ 0.131 to 5.32 µM); in series [8] (Human immunodeficiency virus 1, C8166, read-out: IC50 (dose reducing the cytopathic effect by 50%, ID50)) it was 0.08 µg/mL (≈ 0.349 µM). Moreover, the “CD50 (50% cytotoxic dose)” value in series [9] was over 100 µg/mL.
Take `Nc1nc(=O)n([C@H]2CO[C@@H](CO)S2)cc1F` [compound 3, 2R-hydroxymethyl-4R-(5′-fluorocytosin-1′-yl)-1,3-oxathiolane]: the “CCID50 H9” value in [1] was over 500 µM. Also, the pIC50 was 5.05 in series [2], 5.52 in series [6] and 4.94 in series [10]. In addition, in series [3], the “CCID50 U937” value was over 500 µM. Also, in [4], the “CCID50 MT-4” value was over 500 µM. Besides, the CD50 in series [5] was over 23 µg/mL. For the same molecule, the IC50 in series [7] is 0.002 to 0.05 µg/mL (≈ 0.00809 to 0.202 µM); in series [8] (setting [11]) it was 0.17 µg/mL (≈ 0.688 µM). Also, the “CD50 (50% cytotoxic dose)” value in [9] was over 100 µg/mL.
In the case of `Nc1nc(=O)n([C@@H]2CO[C@H](CO)S2)cc1F` [compound 4, 2S-hydroxymethyl-4S-(5′-fluorocytosin-1′-yl)-1,3-oxathiolane], the “CCID50 H9” value in series [1] was over 500 µM. In addition, the pIC50 in [2] was 5.70; in series [6], 5.52; in series [10], 5.19. Further, the “CCID50 U937” value in [3] was over 500 µM. Further, the “CCID50 MT-4” value in [4] was over 500 µM. The CD50 in series [5] was over 23 µg/mL. The IC50 is 0.02 to 0.05 µg/mL (≈ 0.0809 to 0.202 µM) in [7] and 0.03 µg/mL (≈ 0.121 µM) in series [8] (setting [11]). Also, the “CD50 (50% cytotoxic dose)” value in series [9] was 100 µg/mL.
